Read-outs that look alike come from different tables or passages of the source.
How the values were obtained:
[1] = system: SUM149; conditions: cited from earlier work; for TI (therapeutic index) SUM149: EC50 BJ fibroblasts / EC50 SUM149; for Effectiveness against SUM149 cell line (in words): conclusions, Table 1 values of these compounds ref 13
[2] = system: human BJ fibroblasts; conditions: cited from earlier work
[3] = system: MCF07; conditions: cited from earlier work; for TI (therapeutic index) MCF07: EC50 BJ fibroblasts / EC50 MCF07
[4] = system: MDA-MB231; conditions: cited from earlier work; for TI (therapeutic index) MDA-MB231: EC50 BJ fibroblasts / EC50 MDA-MB231
[5] = system: SUM149 cells; test: Colony formation (clonogenic) assay, SUM149; assay type: cell-based, Human; conditions: 10 μM
Method: Further evaluation of various promising compounds using breast cancer cells included analysis of colony-forming inhibition capabilities and investigations into their specific mechanistic pathways of action. Thus, the anchorage-dependent colony formation assay, also known as the clonogenic assay, was conducted. This method in cancer research evaluates the ability of single cells to grow into colonies when attached to a surface and can measure a cell’s ability to undergo “unlimited” division and form a colony (usually defined as ≥50 cells).
The clonogenic assay offers comprehensive insights into the compound’s overall efficacy and is regarded as the definitive method for assessing post-treatment reproductive cell death (both cytotoxic and cytostatic effects). The extended duration of the experiment simultaneously provides valuable data on the compounds’ stability over time, which are not detected in short-term viability assays. […] In the MDA-MB231 cellular model (Figure 3), the evaluated compounds successfully eliminated the cells’ capacity to establish colonies (for images, see Figures S3 and S4).
MDA-MB-231 (0.8 × 10^6 cells/well) and SUM-149 cells (1.5 × 10^6 cells/well) were plated on a 6-well plate. Two days later, cell media was changed to 5% FBS, and cells were incubated at 37 °C in a 5% CO2 atmosphere for 1 h before the vehicle (0.1% DMSO) or compound (5–10μM) was added. After 72 h of treatment, cells were trypsinized and reseeded at 800 cells/mL (MDA-MB231) and 1200 cells/mL (SUM149) per well in 6-well plates. After 10 days of culture, the media was removed from the wells and washed once with cold PBS. The colonies were stained with 5 mL of 1% Crystal Violet for 30 min. The dishes were fixed by methanol, rinsed with water three times, and air-dried, and the colonies were counted using ImageJ version 1.5.4 (NIH, Bethesda, MD, USA).

[6] = system: MDA-MB231 breast cancer cells; test: Cell morphology by brightfield microscopy; assay type: cell-based, Human; conditions: 24 h treatment, brightfield 10×; 1 and 6 at 5 μM, 10 at 10 μM
Text: Brightfield microscopy images of MDA-MB231 breast cancer cells are indicated in Figure 6 to highlight the morphological changes that occur upon treatment with compounds 1, 6, and 10 as representative compounds. […] The precise mechanism of cell death for other compounds remained unclear.
Representative images were collected using 10× objective with a Leica DMi1 Microscope (Leica microsystems, Wetzlar, Germany). MDA-MB231 cells were imaged with a vehicle as the negative control, staurosporine as the positive control (2 μM), or compounds with results shown in representative images for 24 h.

[7] = system: several breast cancer cell lines; parameters: method as in PMID 36831660; conditions: cited from earlier work; for therapeutic index range: range over the named compounds and cell lines (Table 1)
[8] = system: MCF07; test: CellTiter-Glo cell viability/proliferation assay, MCF07; assay type: cell-based, Human; conditions: for TI (therapeutic index) MCF07: EC50 BJ fibroblasts / EC50 MCF07; for IC50: Homo sapiens, 72 h incubation, CellTiter-Glo, mean ± SD, read-out: Cytotoxicity IC50, MCF07
Method: (§1) The compounds were systematically assessed through multiple biological testing platforms to establish their relative effectiveness and explore potential correlations between chemical structure and biological function. Firstly, their ability to inhibit the proliferation of three specific breast cancer linages (SUM149, MDA-MB231, MCF07) was evaluated in vitro by using the established CellTiter-Glo® [18, 19] cellular proliferation assay.
(§2) Human cell lines were incubated at 37 °C in a 5% CO2 atmosphere and maintained under sterile conditions. Cells were tested for Mycoplasma (Lonza, Alpharetta, GA, USA) using the manufacturer’s conditions prior to experiments. Cell lines were purchased from American Type Culture Collection (ATCC, Manassas, VA, USA), and SUM149 was obtained from Asterand (Detroit, MI, USA) and cultured without antibiotics unless stated. Cells were cultured in Eagle’s Minimum Essential Medium (EMEM), DMEM, or F12 from ATCC supplemented with 10% fetal bovine serum (FBS, Hyclone, Logan, UT, USA) and 1% GlutaMAX. Human BJ fibroblast cells (ATCC, CRL-2522) were supplemented with 10% fetal bovine serum (FBS, Hyclone, Logan, UT, USA) and 1% GlutaMAX. BJ cells were cultured in EMEM media, and breast cancer cells (MDA-MB-231, MCF07) were cultured in DMEM. SUM149 was cultured in Ham’s F12 supplemented with 1% GlutaMAX,1% Pen/Step, 2 μM cortisol, and 1 ug/mL insulin. Cells were grown to 80% confluence densities as recommended by ATCC.
(§3) Cytotoxicity evaluation was performed using the CellTiter-Glo Luminescent Cell Viability Assay kit (G7570, Promega, Madison, WI, USA), according to the manufacturer’s instructions. Briefly, the cell concentrations used were experimentally determined to ensure logarithmic growth during the 72 h duration of the experiment and avoid adverse effects on cell growth by DMSO exposure. To proceed, […] cells/well were seeded in 96-well white flat-bottomed plates (#3610 Corning, Corning, NY, USA) in […]. The plates were incubated at 37 °C in 5% CO2 for 24 h before drugging. Test compounds (10 mM in DMSO) in eight 2-fold serial dilutions were dispensed to assay plates. The final concentration of DMSO was 0.3% (v/v) in each well. The positive controls included staurosporine (10 μM) and/or gambogic acid (10 μM). The plates were incubated for 72 h at 37 °C in 5% CO2, then quenched with CellTiter-Glo® (Promega, Madison, WI, USA, 50 uL/well), centrifuged at 1000 rpm for 1 min, and incubated at RT for 20 min. Luminescence was recorded with a plate reader (CLARIOstar Plus, BMG LabTech, Ortenberg, Germany). The mean luminescence of each experimental treatment group was normalized as a percentage of the mean intensity of untreated controls. EC50 values were calculated from dose-response curve-fitting via non-linear regression using GraphPad Prism 9.0 (GraphPad Software, San Diego, CA, USA). A therapeutic index (TI) between normal and tumor cell lines can be determined (EC50 non-neoplastic cell line BJ)/(EC50 cancer cell line).

[9] = CellTiter-Glo cell viability assay, non-neoplastic BJ fibroblasts; assay type: cell-based; conditions: BJ fibroblast cells (non-neoplastic, ATCC CRL-2522), non-neoplastic human BJ fibroblasts, mean ± SD, read-out: Cytotoxicity IC50, BJ
Method: as §2, §3

[10] = system: MDA-MB231; test: CellTiter-Glo cell viability/proliferation assay, MDA-MB231; assay type: cell-based, Human; conditions: for TI (therapeutic index) MDA-MB231: EC50 BJ fibroblasts / EC50 MDA-MB231; for IC50: Homo sapiens, MDA-MB-231, 72 h incubation, CellTiter-Glo, mean ± SD, read-out: Cytotoxicity IC50, MDA-MB231
Method: as §1, §2, §3

[11] = system: SUM149; test: CellTiter-Glo cell viability/proliferation assay, SUM149; assay type: cell-based, Human; conditions: for TI (therapeutic index) SUM149: EC50 BJ fibroblasts / EC50 SUM149; for IC50: Homo sapiens, SUM149, 72 h incubation, CellTiter-Glo, mean ± SD, read-out: Cytotoxicity IC50, SUM149
Method: as §1, §2, §3

[12] = read-out: Cytotoxicity IC50, SUM149, 72 h incubation, CellTiter-Glo, mean ± SD
[13] = read-out: Cytotoxicity IC50, BJ, non-neoplastic human BJ fibroblasts, 72 h, CellTiter-Glo, mean ± SD
[14] = read-out: Cytotoxicity IC50, MCF07, 72 h incubation, CellTiter-Glo, mean ± SD
[15] = read-out: Cytotoxicity IC50, MDA-MB231, 72 h incubation, CellTiter-Glo, mean ± SD

Structure (SMILES) | IC50 [1, 12] [µM] | IC50 [2, 13] [µM] | TI (therapeutic index) MCF07 [3] | IC50 [3, 14] [µM] | TI (therapeutic index) MDA-MB231 [4] | IC50 [4, 15] [µM] | TI (therapeutic index) SUM149 [1] | therapeutic index range [7] | TI (therapeutic index) MCF07 [8] | IC50 [8] [µM] | IC50 at 72 h [9] [µM] | TI (therapeutic index) MDA-MB231 [10] | IC50 [10] [µM] | TI (therapeutic index) SUM149 [11] | IC50 [11] [µM] | further results
CC(C)c1cc2c(cc1O)[C@@]1(C)CCCC(C)(C)[C@@H]1CC2 [Compound 1, ferruginol] | > 50 | > 50 | >3 | 19 ± 1.5 | >6 | 8.3 ± 1.4 |  |  |  |  |  |  |  |  |  | Colony-forming ability of SUM149 cells [5]: notable exceptions; Morphological changes (early apoptosis) [6]: Membrane blebbing
CC(C)c1cc2c(cc1O)[C@@]1(C)CCC[C@@](C)(CN)[C@@H]1CC2 [Compound 2, 12-hydroxydehydroabietylamine] |  |  | 7 |  | 15 |  | 17 |  |  |  |  |  |  |  |  | IC50 [1]: 4.4 ± 0.3 µM; IC50 [2]: 75 ± 6.2 µM; IC50 [3]: 10 ± 1.5 µM; IC50 [4]: 5.1 ± 0.6 µM
CC(C)c1cc2c(cc1O)[C@@]1(C)CCC[C@@](C)(CN3C(=O)c4ccccc4C3=O)[C@@H]1CC2 [Compound 5, 18-(phthalimid-2-yl)ferruginol] | 4.4 ± 0.2 | 74.8 ± 5.3 | 6 | 13 ± 0.6 | 9 | 8.2 ± 0.5 | 17 | 6–43 |  |  |  |  |  |  |  | 
CC(C)c1cc2c(cc1O)[C@@]1(C)CCC[C@@](C)(CN3C(=O)c4cccc(F)c4C3=O)[C@@H]1CC2 [Compound 6] |  |  |  |  |  |  |  |  | 12 | 5.4 ± 0.6 | 63.5 ± 6.3 | 7 | 9.4 ± 0.9 | 13 | 4.8 ± 0.2 | Morphological changes (early apoptosis) [6]: Membrane blebbing
CC(C)c1cc2c(cc1O)[C@@]1(C)CCC[C@@](C)(CN3C(=O)c4ccc(F)cc4C3=O)[C@@H]1CC2 [Compound 7] |  |  |  |  |  |  |  |  | >7 | 7 ± 0.6 | > 50 | >7 | 7.6 ± 0.2 | >12 | 4.3 ± 0.1 | 
COc1cccc2c1C(=O)N(C[C@]1(C)CCC[C@]3(C)c4cc(O)c(C(C)C)cc4CC[C@@H]13)C2=O [Compound 8, 12-Hydroxy-N,N-(3-methoxyphthaloyl)dehydroabietylamine] |  |  |  |  |  |  |  |  | 6 | 11 ± 1.4 | 61.2 ± 5.4 | ≈1 | 54.6 ± 5 | 12 | 5.3 ± 0.1 | 
COc1ccc2c(c1)C(=O)N(C[C@]1(C)CCC[C@]3(C)c4cc(O)c(C(C)C)cc4CC[C@@H]13)C2=O [Compound 9, 12-Hydroxy-N,N-(4-methoxyphthaloyl)dehydroabietylamine] |  |  |  |  |  |  |  |  | 5 | 12 ± 1.2 | 58.9 ± 5.7 | 7 | 8.2 ± 0.8 | 14 | 4.3 ± 0.2 | 
CC(C)C1=CC2=C(C(=O)C1=O)[C@@]1(C)CCC[C@@](C)(CN3C(=O)c4ccccc4C3=O)[C@@H]1CC2 [Compound 10] | 1.5 ± 0.4 | 35.4 ± 5 | 15 | 2.3 ± 1.1 | 13 | 2.8 ± 0.4 | 24 | 6–43 |  |  |  |  |  |  |  | Effectiveness against SUM149 cell line (in words) [1]: notable effectiveness; Colony-forming ability of SUM149 cells [5]: notable exceptions; Morphological changes (early apoptosis) [6]: Membrane blebbing
COC(=O)[C@]1(C)CCC[C@]2(C)C3=C(C=C(C(C)C)C(=O)C3=O)CC[C@@H]12 [Compound 11] | 1.3 ± 0.6 | 56.5 ± 6.1 | 7 | 8.3 ± 0.9 | 15 | 3.9 ± 0.8 | 43 | 6–43 |  |  |  |  |  |  |  | Effectiveness against SUM149 cell line (in words) [1]: notable effectiveness; Colony-forming ability of SUM149 cells [5]: notable exceptions
CC(C)c1cc2c(c(O)c1O)[C@@]1(C)CCC[C@@](C)(CN3C(=O)c4ccccc4C3=O)[C@@H]1CC2 [Compound 12] |  |  | 7 |  | 12 |  | 18 | 6–43 |  |  |  |  |  |  |  | IC50 [1]: 1.8 ± 0.2 µM; IC50 [2]: 32.5 ± 5 µM; IC50 [3]: 4.6 ± 0.6 µM; IC50 [4]: 2.8 ± 0.2 µM
COC(=O)[C@]1(C)CCC[C@]2(C)c3c(cc(C(C)C)c(O)c3O)CC[C@@H]12 [Compound 13] |  |  | ≈1 |  | 6 |  | ≈1 |  |  |  |  |  |  |  |  | IC50 [1]: > 50 µM; IC50 [2]: 57.6 ± 3 µM; IC50 [3]: > 50 µM; IC50 [4]: 9.4 ± 0.4 µM; Bioactivity across the tested cell lines (in words) ([7]; conclusions, Table 1 values of this compound ref 13): minimal activity
